Laboratory results as given in US10322110B2, “Imidazole-based antimicrobial agents” (priority 2014, dated 2019).
Converted amounts (≈) assume the structure as drawn. Like-named read-outs stand apart in the source and are kept apart here.

Key:
Format in all cases: cell-based
[1] = tested on: Streptococcus pneumoniae (Chester, ATCC49619); assay: broth microdilution MIC assay, Streptococcus pneumoniae; conditions: MIC100 class score, 24 h
[2] = tested on: Staphylococcus aureus MSSA (Newman); assay: broth microdilution MIC assay, Staphylococcus aureus MSSA (Newman); conditions: for Antibacterial activity Staphylococcus aureus (MSSA): MIC100 class score, broth microdilution; for MIC: Staphylococcus aureus
[3] = tested on: Staphylococcus aureus MRSA (COL); assay: broth microdilution MIC assay, Staphylococcus aureus MRSA (COL); conditions: 24 h; for Antibacterial activity Staphylococcus aureus (MRSA): MIC100 class score, broth microdilution; for MIC: Staphylococcus aureus, MRSA, read-out: Antibacterial activity Staphylococcus aureus (MRSA)
[4] = 24 h, read-out: Antibacterial activity Staphylococcus aureus (MSSA)

SMILES	Antibacterial activity Streptococcus pneumoniae [1]	MIC [2, 4] [µg/mL]	MIC [3] [µg/mL]	further results
Cc1[nH]c(-c2ccc(-c3ccc(F)cc3)s2)nc1-c1ccccc1 [Compound 7]	3 (MIC100 of 2-5 μg/ml)	–	–	–
Cc1[nH]c(-c2csc(-c3ccc(F)cc3)n2)nc1-c1ccccc1 [Compound 11]	3 (MIC100 of 2-5 μg/ml)	–	–	–
Cc1[nH]c(-c2ccc(-c3cccc(Cl)c3)s2)nc1-c1ccccc1 [Compound 12]	3 (MIC100 of 2-5 μg/ml)	–	–	–
Cc1[nH]c(-c2ccc(-c3cccc(Br)c3)s2)nc1-c1ccccc1 [Compound 13]	2 (MIC100 of 6-10 μg/ml)	–	–	–
Cc1[nH]c(-c2csc(-c3cccc(Br)c3)n2)nc1-c1ccccc1 [Compound 14]	3 (MIC100 of 2-5 μg/ml)	–	–	–
Cc1[nH]c(-c2ccc(-c3ccccc3C(F)(F)F)o2)nc1-c1cccc(Cl)c1 [Compound 22]	3 (MIC100 of 2-5 μg/ml)	–	–	Antibacterial activity Staphylococcus aureus (MSSA) ([2]; 24 h): 2 (MIC100 of 11-201 μg/ml); MIC ([2]; read-out: Antibacterial activity MSSA (Staphylococcus aureus MSSA)): 11 to 201 µg/mL (≈ 27.3 to 499 µM)
Cc1ccc(-c2ccc(-c3nc(-c4ccccc4)c(C)[nH]3)s2)cc1 [Compound 54]	2 (MIC100 of 6-10 μg/ml)	–	–	–
Cc1ccc(-c2ncc(-c3nc(-c4ccccc4)c(C)[nH]3)s2)cc1 [Compound 55]	3 (MIC100 of 2-5 μg/ml)	–	–	–
Cc1ccc(-c2nc(-c3nc(-c4ccccc4)c(C)[nH]3)cs2)cc1 [Compound 56]	3 (MIC100 of 2-5 μg/ml)	–	–	–
Cc1ccc(-c2nc(-c3nc(-c4ccccc4)c(C)[nH]3)co2)cc1 [Compound 57]	3 (MIC100 of 2-5 μg/ml)	–	–	–
Cc1[nH]c(-c2ccc(-c3ccccc3)s2)nc1-c1ccccc1 [Compound 74]	3 (MIC100 of 2-5 μg/ml)	–	–	–
FC(F)(F)c1ccccc1-c1ccc(-c2ncc(-c3ccccc3)[nH]2)o1 [Compound 75]	–	11 to 201 (≈ 31 to 567 µM)	–	–
Cc1[nH]c(-c2ccc(-c3ccccc3OC(F)(F)F)o2)nc1-c1ccc(O)cc1 [Compound 76]	3 (MIC100 of 2-5 μg/ml)	–	–	Antibacterial activity Staphylococcus aureus (MSSA) ([2]; 24 h): 3 (MIC100 of 3-10 μg/ml)
Cc1[nH]c(-c2ccc(-c3ccccc3F)o2)nc1-c1ccc(O)cc1 [Compound 77]	3 (MIC100 of 2-5 μg/ml)	–	–	Antibacterial activity Staphylococcus aureus (MSSA) ([2]; 24 h): 3 (MIC100 of 3-10 μg/ml)
COc1ccc(-c2ccc(-c3nc(C)c(-c4ccc(O)cc4)[nH]3)o2)cc1 [Compound 79]	3 (MIC100 of 2-5 μg/ml)	–	–	–
CCCc1[nH]c(-c2ccc(-c3ccccc3Cl)s2)nc1C [Compound 82]	–	–	–	Antibacterial activity Staphylococcus aureus (MRSA) [3]: 3 (MIC100 of 3-10 μg/ml)
Brc1ccccc1-c1ccc(-c2ncc(-c3ccccc3)[nH]2)o1 [Compound 83]	3 (MIC100 of 2-5 μg/ml)	–	–	–
Cc1nc(-c2ccc(-c3ccccc3Br)o2)[nH]c1C [Compound 84]	–	–	11 to 201 (≈ 34.7 to 634 µM)	–
Cc1nc(-c2ccc(-c3ccccc3OC(F)(F)F)o2)[nH]c1C [Compound 85]	–	–	1 to 3 (≈ 3.1 to 9.31 µM)	–
CCCCc1nc(-c2ccc(-c3ccccc3C(F)(F)F)o2)[nH]c1C [Compound 90]	3 (MIC100 of 2-5 μg/ml)	–	–	–

SMILES	Antibacterial activity Streptococcus pneumoniae [1]	MIC [2, 4] [µg/mL]	MIC [3] [µg/mL]	further results
CCCc1nc(-c2ccc(-c3ccccc3N(C)C)o2)[nH]c1C [Compound 98]	–	–	–	Antibacterial activity Staphylococcus aureus (MRSA) [3]: 3 (MIC100 of 3-10 μg/ml)
CCCc1[nH]c(-c2ccc(-c3ccccc3C(F)(F)F)o2)nc1C [Compound 101]	3 (MIC100 of 2-5 μg/ml)	–	–	–
CCCc1nc(-c2ccc(-c3ccccc3OC)o2)[nH]c1C [Compound 102]	3 (MIC100 of 2-5 μg/ml)	–	–	–
CCCc1[nH]c(-c2ccc(-c3ccc(Cl)cc3Cl)o2)nc1C [Compound 109]	–	–	–	Antibacterial activity Staphylococcus aureus (MRSA) [3]: 2 (MIC100 of 11-201 μg/ml)
CCCc1[nH]c(-c2ccc(-c3cc(F)ccc3C(F)(F)F)o2)nc1C [Compound 111]	3 (MIC100 of 2-5 μg/ml)	–	–	–
CCCc1nc(-c2coc(-c3ccccc3C(F)(F)F)c2)[nH]c1C [Compound 112]	–	–	–	Antibacterial activity Staphylococcus aureus (MRSA) [3]: 3 (MIC100 of 3-10 μg/ml)
CCCc1nc(-c2csc(-c3ccccc3C(F)(F)F)c2)[nH]c1C [Compound 113]	–	–	–	Antibacterial activity Staphylococcus aureus (MRSA) [3]: 3 (MIC100 of 3-10 μg/ml)
CCCc1nc(-c2sc(-c3ccccc3C(F)(F)F)c3c2OCCO3)[nH]c1C [Compound 114]	–	–	–	Antibacterial activity Staphylococcus aureus (MRSA) [3]: 3 (MIC100 of 3-10 μg/ml)
COc1cccc(-c2nc(-c3nc(-c4ccccc4)c(C)[nH]3)cs2)c1 [Compound 116]	3 (MIC100 of 2-5 μg/ml)	–	–	–
Cc1[nH]c(-c2ccc(-c3cccc(F)c3)s2)nc1-c1ccccc1 [Compound 117]	–	20 to 50 (≈ 59.8 to 150 µM)	–	–
Cc1nc(-c2ccc(-c3ccc(O)cc3F)o2)[nH]c1-c1ccc(O)cc1 [Compound 120]	3 (MIC100 of 2-5 μg/ml)	–	–	Antibacterial activity Staphylococcus aureus (MSSA) ([2]; 24 h): 2 (MIC100 of 11-201 μg/ml)
Fc1ccc(-c2ccc(-c3nc4ccccc4[nH]3)o2)cc1 [Compound 121]	inactive	–	–	–
Fc1ccc(-c2ccc(-c3nc4ccccc4[nH]3)o2)c(F)c1 [Compound 122]	inactive	–	–	–
Cc1nc(-c2ccc(-c3cccc4[nH]ccc34)o2)[nH]c1-c1ccccc1 [Compound 138]	–	–	11 to 201 (≈ 32.4 to 592 µM)	–
Cc1nc(-c2ccc(-c3ccc(O)cc3C(F)(F)F)o2)[nH]c1-c1ccccc1 [Compound 139]	–	1 to 3 (≈ 2.6 to 7.81 µM)	1 to 3 (≈ 2.6 to 7.81 µM)	–
Cc1nc(-c2ccc(-c3cc4ccccc4o3)o2)[nH]c1-c1ccccc1 [Compound 140]	–	–	11 to 201 (≈ 32.3 to 591 µM)	–
Cc1nc(-c2ccc(-c3ccc(N4CCN(C)CC4)cc3)o2)[nH]c1-c1ccccc1 [Compound 141]	–	–	20 to 50 (≈ 50.2 to 125 µM)	–
Cc1nc(-c2ccc(-c3cccc(C(F)(F)F)c3)o2)[nH]c1-c1ccccc1 [Compound 142]	–	1 to 3 (≈ 2.71 to 8.14 µM)	1 to 3 (≈ 2.71 to 8.14 µM)	–
Cc1nc(-c2ccc(-c3ccc4[nH]ccc4c3)o2)[nH]c1-c1ccccc1 [Compound 144]	–	3 to 10 (≈ 8.84 to 29.5 µM)	3 to 10 (≈ 8.84 to 29.5 µM)	–
Cc1nc(-c2ccc(-c3cccc(O)c3)o2)[nH]c1-c1ccccc1 [Compound 145]	–	11 to 201 (≈ 34.8 to 635 µM)	20 to 50 (≈ 63.2 to 158 µM)	–

SMILES	Antibacterial activity Streptococcus pneumoniae [1]	MIC [2, 4] [µg/mL]	MIC [3] [µg/mL]	further results
Cc1nc(-c2ccc(-c3cccc(F)c3)o2)[nH]c1-c1ccccc1 [Compound 146]	–	3 to 10 (≈ 9.42 to 31.4 µM)	3 to 10 (≈ 9.42 to 31.4 µM)	–
Cc1nc(-c2ccc(-c3ccc(F)cc3F)o2)[nH]c1-c1ccccc1 [Compound 147]	–	1 to 3 (≈ 2.97 to 8.92 µM)	1 to 3 (≈ 2.97 to 8.92 µM)	–
Cc1nc(-c2ccc(-c3ccc(F)cc3)o2)[nH]c1-c1ccccc1 [Compound 148]	–	3 to 10 (≈ 9.42 to 31.4 µM)	3 to 10 (≈ 9.42 to 31.4 µM)	–
Cc1nc(-c2ccc(-c3ccccc3O)o2)[nH]c1-c1ccccc1 [Compound 149]	–	11 to 201 (≈ 34.8 to 635 µM)	20 to 50 (≈ 63.2 to 158 µM)	–
Cc1nc(-c2ccc(-c3ccc(O)cc3)o2)[nH]c1-c1ccccc1 [Compound 150]	–	11 to 201 (≈ 34.8 to 635 µM)	11 to 201 (≈ 34.8 to 635 µM)	–
Cc1nc(-c2ccc(-c3ccc4cc[nH]c4c3)o2)[nH]c1-c1ccccc1 [Compound 152]	–	3 to 10 (≈ 8.84 to 29.5 µM)	3 to 10 (≈ 8.84 to 29.5 µM)	–
Cc1nc(-c2ccc(-c3ccc(F)c(F)c3)o2)[nH]c1-c1ccccc1 [Compound 153]	–	3 to 10 (≈ 8.92 to 29.7 µM)	3 to 10 (≈ 8.92 to 29.7 µM)	–
Cc1nc(-c2ccc(-c3ccc4cc(O)ccc4c3)o2)[nH]c1-c1ccccc1 [Compound 154]	–	11 to 201 (≈ 30 to 549 µM)	11 to 201 (≈ 30 to 549 µM)	–
Cc1nc(-c2ccc(-c3ccc(O)c(C(F)(F)F)c3)o2)[nH]c1-c1ccccc1 [Compound 155]	–	3 to 10 (≈ 7.81 to 26 µM)	11 to 201 (≈ 28.6 to 523 µM)	–
Cc1nc(-c2ccc(-c3ccc(O)c(Cl)c3)o2)[nH]c1-c1ccccc1 [Compound 157]	–	3 to 10 (≈ 8.55 to 28.5 µM)	11 to 201 (≈ 31.4 to 573 µM)	–
Cc1nc(-c2ccc(-c3ccc(O)cc3Cl)o2)[nH]c1-c1ccccc1 [Compound 158]	–	1 to 3 (≈ 2.85 to 8.55 µM)	1 to 3 (≈ 2.85 to 8.55 µM)	–
Cc1nc(-c2ccc(-c3ccc4occc4c3)o2)[nH]c1-c1ccccc1 [Compound 159]	–	3 to 10 (≈ 8.81 to 29.4 µM)	20 to 50 (≈ 58.8 to 147 µM)	–
Cc1nc(-c2ccc(-c3cc4ccccc4[nH]3)o2)[nH]c1-c1ccccc1 [Compound 160]	–	3 to 10 (≈ 8.84 to 29.5 µM)	11 to 201 (≈ 32.4 to 592 µM)	–
Cc1nc(-c2ccc(-c3cccc4cc[nH]c34)o2)[nH]c1-c1ccccc1 [Compound 161]	–	3 to 10 (≈ 8.84 to 29.5 µM)	1 to 3 (≈ 2.95 to 8.84 µM)	–
Cc1[nH]c(-c2ccc(-c3ccccc3F)o2)nc1-c1ccccc1 [Compound 162]	–	3 to 10 (≈ 9.42 to 31.4 µM)	3 to 10 (≈ 9.42 to 31.4 µM)	–
Cc1cc(F)ccc1-c1ccc(-c2nc(-c3ccccc3)c(C)[nH]2)o1 [Compound 164]	–	3 to 10 (≈ 9.03 to 30.1 µM)	–	–
Cc1[nH]c(-c2cnn(-c3ccc(F)cc3)c2)nc1-c1ccccc1 [Compound 166]	–	20 to 50 (≈ 62.8 to 157 µM)	20 to 50 (≈ 62.8 to 157 µM)	–
Cc1[nH]c(-c2cnn(-c3ccccc3)c2)nc1-c1ccccc1 [Compound 167]	–	–	20 to 50 (≈ 66.6 to 166 µM)	–
Cc1nc(-c2ccc(-c3ccc(O)cc3F)o2)[nH]c1-c1ccccc1 [Compound 168]	–	3 to 10 (≈ 8.97 to 29.9 µM)	3 to 10 (≈ 8.97 to 29.9 µM)	–
